From ChEMBL document CHEMBL1201862, “PubChem BioAssay data set” (2004)
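Dose response: 5 concentrations. Exposure: 48 h. Format: 96-well plates. Endpoint: linear interpolation; highest concentration if not reached. GI50 is the concentration that inhibits growth by half.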 Activity calls are given as the source filed them. Cut-off read from the data, not from the text of the source: active = GI50 up to about 1.1 µM and inactive = higher.

How the values were obtained:
Experiment in all cases: growth of human tumour cells (NCI), 48 h
MCF7 = tested on: MCF7
HOP-62 = tested on: HOP-62
Malme-3M = tested on: Malme-3M
HCT-15 = tested on: HCT-15
SN12C = tested on: SN12C
SNB-19 = tested on: SNB-19
EKVX = tested on: EKVX
SF-295 = tested on: SF-295
KM12 = tested on: KM12
UACC-257 = tested on: UACC-257
OVCAR-4 = tested on: OVCAR-4
NCI-H522 = tested on: NCI-H522
SNB-75 = tested on: SNB-75
SK-MEL-5 = tested on: SK-MEL-5
A549 = tested on: A549
NCI-H460 = tested on: NCI-H460
SF-539 = tested on: SF-539
COLO 205 = tested on: COLO 205
RXF 393 = tested on: RXF 393
OVCAR-5 = tested on: OVCAR-5

Row | SMILES | GI50 (MCF7) | GI50 (HOP-62) | GI50 (Malme-3M) | GI50 (HCT-15) [µM] | GI50 (SN12C) | GI50 (SNB-19) | GI50 (EKVX) | GI50 (SF-295) | GI50 (KM12) | GI50 (UACC-257) | GI50 (OVCAR-4) | GI50 (NCI-H522) | GI50 (SNB-75) | GI50 (SK-MEL-5) | GI50 (A549) | GI50 (NCI-H460) | GI50 (SF-539) | GI50 (COLO 205) | GI50 (RXF 393) | GI50 (OVCAR-5)
1 | O=C(N[C@@H](c1ccccc1)[C@@H](O)C(=O)OCc1ccc2c(c1)OCO2)c1ccccc1 | > 100 µM (inactive) | > 100 µM (inactive) | > 100 µM (inactive) | > 100 | > 100 µM (inactive) | > 100 µM (inactive) | > 100 µM (inactive) | > 100 µM (inactive) | > 100 µM (inactive) | > 100 µM (inactive) | > 100 µM (inactive) | > 100 µM (inactive) | > 90.4 µM (inactive) | > 100 µM (inactive) | > 100 µM (inactive) | > 100 µM (inactive) | > 100 µM (inactive) | > 100 µM (inactive) | 52.8 µM (inactive) | > 31.6 µM (inactive)
2 | CC1C(=O)CC(c2cccs2)N(N=O)C1c1cccs1 (stereo not given) | 19.3 µM (inactive) | 97.7 µM (inactive) | > 82 µM (inactive) | 46.1 | 69.8 µM (inactive) | > 85.3 µM (inactive) | 57.1 µM (inactive) | 24.7 µM (inactive) | 54.1 µM (inactive) | 39.1 µM (inactive) | 50.2 µM (inactive) | 28.2 µM (inactive) | 33.1 µM (inactive) | 33.4 µM (inactive) | 58.3 µM (inactive) | 34.8 µM (inactive) | 57.5 µM (inactive) | 53.1 µM (inactive) | 24.9 µM (inactive) | > 100 µM (inactive)
3 | CCOC(=O)/C=C/c1c[nH]c(=O)[nH]c1=O | > 75 µM (inactive) | > 49.1 µM (inactive) | > 75 µM (inactive) | > 75 | > 75 µM (inactive) | > 75 µM (inactive) | > 75 µM (inactive) | > 75 µM (inactive) | > 75 µM (inactive) | > 75 µM (inactive) | > 75 µM (inactive) | > 75 µM (inactive) | > 72.6 µM (inactive) | > 75 µM (inactive) | > 75 µM (inactive) | > 75 µM (inactive) | > 75 µM (inactive) | > 75 µM (inactive) | > 75 µM (inactive) | > 75 µM (inactive)
4 | C/C(=N\NS(=O)(=O)c1ccc(C)cc1)P(=O)(O)O | > 100 µM (inactive) | > 100 µM (inactive) | > 100 µM (inactive) | > 100 | > 100 µM (inactive) | > 100 µM (inactive) | > 100 µM (inactive) | > 100 µM (inactive) | > 100 µM (inactive) | > 100 µM (inactive) | > 100 µM (inactive) | > 100 µM (inactive) | > 100 µM (inactive) | > 100 µM (inactive) | > 100 µM (inactive) | > 100 µM (inactive) | > 100 µM (inactive) | > 100 µM (inactive) | > 100 µM (inactive) | > 100 µM (inactive)
5 | COc1c(O)cc(O)c2c(=O)cc(-c3ccccc3)oc12 [WOGONIN] | 35.6 µM (inactive) | 21.7 µM (inactive) | 85.3 µM (inactive) | 35.1 | 90.6 µM (inactive) | 58.7 µM (inactive) | 61.5 µM (inactive) | 34.5 µM (inactive) | 34 µM (inactive) | 87.9 µM (inactive) | 77.4 µM (inactive) | 40.6 µM (inactive) | 56.1 µM (inactive) | 34.2 µM (inactive) | 42.9 µM (inactive) | 26.2 µM (inactive) | 42.5 µM (inactive) | 64.3 µM (inactive) | 17.5 µM (inactive) | 49.7 µM (inactive)
